# Source: EP0552657A1, “Use of pure Boswellic acid” (AMMON, Hermann P.T., priority 1992, dated 1993)
# Molecular target: T1, 5-Lipoxygenase (Rattus norvegicus, UniProt P12527)
# T1 sequence (P12527 1-673): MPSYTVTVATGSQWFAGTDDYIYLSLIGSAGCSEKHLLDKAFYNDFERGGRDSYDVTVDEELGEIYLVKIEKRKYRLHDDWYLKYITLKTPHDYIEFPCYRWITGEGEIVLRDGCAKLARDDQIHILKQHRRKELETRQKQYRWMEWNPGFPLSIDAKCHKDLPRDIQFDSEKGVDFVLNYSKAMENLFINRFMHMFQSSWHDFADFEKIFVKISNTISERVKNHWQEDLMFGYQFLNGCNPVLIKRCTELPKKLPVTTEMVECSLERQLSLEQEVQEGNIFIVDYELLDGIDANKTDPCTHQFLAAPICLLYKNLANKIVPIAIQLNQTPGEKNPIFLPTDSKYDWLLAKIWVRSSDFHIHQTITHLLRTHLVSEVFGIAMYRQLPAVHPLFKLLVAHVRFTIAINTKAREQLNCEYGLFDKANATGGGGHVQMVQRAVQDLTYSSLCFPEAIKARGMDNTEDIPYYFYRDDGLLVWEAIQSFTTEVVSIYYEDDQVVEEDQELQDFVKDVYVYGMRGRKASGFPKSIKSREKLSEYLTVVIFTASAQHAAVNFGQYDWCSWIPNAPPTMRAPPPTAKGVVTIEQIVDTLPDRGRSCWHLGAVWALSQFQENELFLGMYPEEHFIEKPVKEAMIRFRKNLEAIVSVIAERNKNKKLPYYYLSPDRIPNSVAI
# Experiment: 5-lipoxygenase inhibition by boswellic acids (stimulated neutrophil granulocytes from rat peritoneum)
# Type: cell-based, Ratte
# Details: read-out: IC50-Werte für die 5-LO-Hemmung
# From the text: Mit Hilfe des Testes mit Calcium- und Ionophor-stimulierten neutrophilen Leukozyten der Ratte konnte nachgewiesen werden, daß Extrakte aus Boswellia serrata vorwiegend die Bildung von Leukotrienen blockieren, dagegen die Prostaglandinsynthese erst in wesentlich höheren Konzentrationen beeinflussen (vgl. zur Methodik: a) Messung der Leukotriene: Safayhi et al., Biochem. Pharmacology, 34:2691-2694, 1985; b) Messung der Prostaglandine: Kommerzielle Radio-Immunoassay-Kits der Firma Amersham für 6-Keto-PGF1α).
# Anhand der beigefügten Zeichnungen wird die Erfindung näher erläutert. […] Methode: Safayhi et al., JPET accepted. • Fig. 4 die Elutionsprofile der durch Eisen/Ascorbat-Stimulation aus exogener Arachidonsäure im zellfreien System entstehenden oxidierten und hydroxylierten Produkte in Gegenwart steigender Konzentrationen von Acetyl-boswelliasäure (A) und Nordihydroguaiaretsäure (B). Methode: Safayhi et al., JPET accepted.
row,SMILES,IC50 [µM]
1,C[C@H]1[C@H](C)CC[C@]2(C)CC[C@]3(C)C(=CC(=O)[C@@H]4[C@@]5(C)CC[C@@H](O)[C@](C)(C(=O)O)[C@@H]5CC[C@]43C)[C@H]12 [11-Keto-ß-boswelliasäure],5
2,CC(=O)O[C@@H]1CC[C@@]2(C)[C@@H](CC[C@]3(C)[C@@H]2C(=O)C=C2[C@@H]4[C@@H](C)[C@H](C)CC[C@]4(C)CC[C@]23C)[C@@]1(C)C(=O)O [Acetyl-11-keto-ß-boswelliasäure],2
3,CC(=O)O[C@@H]1CC[C@@]2(C)[C@@H](CC[C@]3(C)[C@@H]2CC=C2[C@@H]4[C@@H](C)[C@H](C)CC[C@]4(C)CC[C@]23C)[C@@]1(C)C(=O)O [Acetyl-boswelliasäure],7
4,CC(=O)O[C@@H]1CC[C@@]2(C)[C@@H](CC[C@]3(C)[C@@H]2CC=C2[C@@H]4CC(C)(C)CC[C@]4(C)CC[C@]23C)[C@@]1(C)C(=O)O [Acetyl-α-boswelliasäure],7
5,C[C@H]1[C@H](C)CC[C@]2(C)CC[C@]3(C)C(=CC[C@@H]4[C@@]5(C)CC[C@@H](O)[C@](C)(C(=O)O)[C@@H]5CC[C@]43C)[C@H]12 [ß-Boswelliasäure],5
6,CC1(C)CC[C@]2(C)CC[C@]3(C)C(=CC[C@@H]4[C@@]5(C)CC[C@@H](O)[C@](C)(C(=O)O)[C@@H]5CC[C@]43C)[C@@H]2C1 [α-Boswelliasäure],5
